Experimental data taken from ChEMBL document CHEMBL1201862, “PubChem BioAssay data set” (2004).
Active and inactive are the calls of the source.

Legend:
[1] = biological target: Sphingosine 1-phosphate receptor 1 (Homo sapiens, UniProt P21453); assay: Fluorescence-based counterscreen assay for S1P4 agonists: Cell-based dose response high throughput screening assay to identify agonists of the Sphingosine 1-Phosphate Receptor 1 (S1P1). [Related pubchem assays (depositor defined):AID1509, AID1523, AID1801, AID463107, AID463118, AID463119, AID463122, AID463123, AID463129, AID463225, AID504400, AID504460]; assay type: functional
[2] = biological target: T1, Sphingosine 1-phosphate receptor 4 (Homo sapiens, UniProt O95977); assay: Fluorescence dose response cell-based high throughput screening assay for agonists of the Sphingosine 1-Phosphate Receptor 4 (S1P4). [Related pubchem assays: 1509 (Primary screen.), 1523 (Confirmation screen in triplicates.)]; assay type: functional
T1 sequence (O95977 whole entry): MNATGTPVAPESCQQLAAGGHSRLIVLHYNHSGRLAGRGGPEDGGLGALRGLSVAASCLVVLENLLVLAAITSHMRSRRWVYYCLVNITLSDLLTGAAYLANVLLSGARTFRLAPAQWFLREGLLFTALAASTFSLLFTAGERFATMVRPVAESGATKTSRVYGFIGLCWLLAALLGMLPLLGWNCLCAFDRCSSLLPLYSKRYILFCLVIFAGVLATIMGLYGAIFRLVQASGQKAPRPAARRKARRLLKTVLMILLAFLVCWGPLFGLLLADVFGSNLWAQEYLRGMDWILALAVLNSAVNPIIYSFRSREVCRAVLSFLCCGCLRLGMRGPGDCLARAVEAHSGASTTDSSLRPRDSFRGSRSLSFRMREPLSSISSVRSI

[3] = biological target: T2, Mannose-6-phosphate isomerase (Homo sapiens, UniProt P34949); assay: PMI enzyme inhibitors, confirmation, biochemical, fluorescence intensity (AID 1535)
T2 sequence (P34949 whole entry): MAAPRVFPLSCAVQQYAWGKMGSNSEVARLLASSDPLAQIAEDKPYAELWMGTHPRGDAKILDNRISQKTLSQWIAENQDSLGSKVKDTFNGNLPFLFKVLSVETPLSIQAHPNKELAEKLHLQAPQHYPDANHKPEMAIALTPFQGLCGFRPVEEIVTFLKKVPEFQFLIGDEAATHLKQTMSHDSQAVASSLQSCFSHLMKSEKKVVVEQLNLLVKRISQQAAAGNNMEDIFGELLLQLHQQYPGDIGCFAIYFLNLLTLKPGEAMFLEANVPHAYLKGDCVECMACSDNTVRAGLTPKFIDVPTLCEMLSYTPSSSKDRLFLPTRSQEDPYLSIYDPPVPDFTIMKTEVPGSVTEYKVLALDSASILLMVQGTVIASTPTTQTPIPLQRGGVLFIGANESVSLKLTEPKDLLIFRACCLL

[4] = biological target: T2, Mannose-6-phosphate isomerase; assay: human PMI inhibitors, high substrate, primary screen, biochemical, fluorescence intensity, high mannose 6-phosphate (AID 1220)
[5] = biological target: Eukaryotic translation initiation factor 4E (Mus musculus, UniProt P63073); assay: eIF4E–eIF4G protein interaction inhibitors, dose response, biochemical, TR-FRET (AID 855); assay type: functional;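 further: potency for disrupting eIF4E binding to eIF4GI seen as loss of FRET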
Phosphomannomutase 2 = Phosphomannomutase 2 (Homo sapiens, UniProt O15305); assay: Counter screen SAR assay for PMM2 inhibitors via a fluorescence intensity assay. [Related pubchem assays (depositor defined):AID1545, AID1574]
[6] = biological target: T3, Kappa-type opioid receptor (Homo sapiens, UniProt P41145); assay: SAR analysis of small molecule agonists of the kappa opioid receptor via a luminescent beta-arrestin assay. [Related pubchem assays (depositor defined):AID1777, AID1786, AID1966, AID2133, AID2136, AID2348, AID2352, AID2357, AID2359, AID2370, AID2420, AID2478, AID2491, AID2492, AID2493, AID2497, AID2498, AID2500, AID449737, AID488822, AID488842]; assay type: functional
[7] = biological target: T3, Kappa-type opioid receptor; assay: KOR antagonists by imaging, SAR follow-up, image-based (AID 2348); assay type: functional
[8] = biological target: T3, Kappa-type opioid receptor; assay: KOR agonist analogs, imaging readout, SAR follow-up, image-based (AID 2359); assay type: functional
Mu-type opioid receptor [9] = biological target: T4, Mu-type opioid receptor (Homo sapiens, UniProt P35372); assay: MOR agonists by imaging, SAR follow-up, image-based (AID 2352); assay type: functional
[10] = biological target: T5, Delta-type opioid receptor (Homo sapiens, UniProt P41143); assay: DOR antagonists, SAR follow-up, image-based (AID 2357); assay type: functional
[11] = biological target: T5, Delta-type opioid receptor; assay: DOR agonists, SAR follow-up, image-based (AID 2370); assay type: functional
Mu-type opioid receptor [12] = biological target: T4, Mu-type opioid receptor; assay: MOR antagonists, SAR follow-up, image-based (AID 2420); assay type: functional;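 further: compounds added before stimulation of receptor with agonist DAMGO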
[13] = biological target: T6, Serine/threonine-protein phosphatase (Candida dubliniensis (strain CD36 / CBS 7987 / NCPF 3949 / NRRLY-17841) (Yeast), UniProt B9W6M3); assay: Fluorescence Cell-Based Secondary Assay to Identify Inhibitors of Calcineurin. [Related pubchem assays (depositor defined):AID1979, AID2007]; assay type: functional
T6 sequence (B9W6M3 whole entry): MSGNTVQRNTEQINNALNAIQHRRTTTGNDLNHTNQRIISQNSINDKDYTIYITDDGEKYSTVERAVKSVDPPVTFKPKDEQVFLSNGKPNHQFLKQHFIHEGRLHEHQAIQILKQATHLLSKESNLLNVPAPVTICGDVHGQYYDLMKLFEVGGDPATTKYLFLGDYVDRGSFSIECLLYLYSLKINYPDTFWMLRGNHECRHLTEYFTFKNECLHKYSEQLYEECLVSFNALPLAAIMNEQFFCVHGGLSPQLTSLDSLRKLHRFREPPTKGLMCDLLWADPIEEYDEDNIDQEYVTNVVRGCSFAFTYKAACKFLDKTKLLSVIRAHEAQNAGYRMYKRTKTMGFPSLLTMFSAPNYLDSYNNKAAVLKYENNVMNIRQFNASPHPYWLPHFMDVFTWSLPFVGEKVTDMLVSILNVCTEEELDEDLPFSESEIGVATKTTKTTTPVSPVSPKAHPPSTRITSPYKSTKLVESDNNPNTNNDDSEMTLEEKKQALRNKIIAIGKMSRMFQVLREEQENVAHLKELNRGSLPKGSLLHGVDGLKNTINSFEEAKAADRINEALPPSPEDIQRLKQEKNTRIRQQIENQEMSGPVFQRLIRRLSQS

T3 sequence (P41145 whole entry): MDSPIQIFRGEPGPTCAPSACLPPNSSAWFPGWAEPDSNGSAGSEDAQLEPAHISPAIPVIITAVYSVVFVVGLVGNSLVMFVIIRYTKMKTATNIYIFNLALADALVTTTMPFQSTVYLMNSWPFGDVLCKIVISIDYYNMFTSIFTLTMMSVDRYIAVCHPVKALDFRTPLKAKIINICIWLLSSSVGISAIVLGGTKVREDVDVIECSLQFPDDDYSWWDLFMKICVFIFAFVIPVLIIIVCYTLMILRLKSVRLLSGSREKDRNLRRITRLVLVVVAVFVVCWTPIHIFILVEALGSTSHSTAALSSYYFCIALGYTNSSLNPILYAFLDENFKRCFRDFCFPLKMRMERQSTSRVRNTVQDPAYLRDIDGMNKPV
T5 sequence (P41143 whole entry): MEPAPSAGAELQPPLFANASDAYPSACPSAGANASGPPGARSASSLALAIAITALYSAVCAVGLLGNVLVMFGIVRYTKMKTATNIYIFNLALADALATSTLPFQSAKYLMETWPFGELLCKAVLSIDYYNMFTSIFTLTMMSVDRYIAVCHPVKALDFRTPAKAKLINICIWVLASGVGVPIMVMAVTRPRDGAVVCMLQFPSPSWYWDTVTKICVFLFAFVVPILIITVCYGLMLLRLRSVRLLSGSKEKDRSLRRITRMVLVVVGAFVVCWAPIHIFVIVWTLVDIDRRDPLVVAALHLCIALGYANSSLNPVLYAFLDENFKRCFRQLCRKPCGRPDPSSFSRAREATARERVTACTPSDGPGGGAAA
T4 sequence (P35372 whole entry): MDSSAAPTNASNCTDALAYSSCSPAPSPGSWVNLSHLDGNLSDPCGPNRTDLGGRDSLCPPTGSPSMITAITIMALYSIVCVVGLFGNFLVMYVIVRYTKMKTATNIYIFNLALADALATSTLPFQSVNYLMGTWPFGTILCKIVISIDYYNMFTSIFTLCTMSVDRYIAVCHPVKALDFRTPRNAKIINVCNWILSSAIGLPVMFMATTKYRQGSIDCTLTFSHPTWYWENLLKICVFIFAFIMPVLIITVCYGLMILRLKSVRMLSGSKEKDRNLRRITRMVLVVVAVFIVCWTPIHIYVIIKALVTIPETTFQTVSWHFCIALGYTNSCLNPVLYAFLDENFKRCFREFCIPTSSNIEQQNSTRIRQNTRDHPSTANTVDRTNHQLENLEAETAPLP
Sequence of Eukaryotic translation initiation factor 4E (P63073 whole entry): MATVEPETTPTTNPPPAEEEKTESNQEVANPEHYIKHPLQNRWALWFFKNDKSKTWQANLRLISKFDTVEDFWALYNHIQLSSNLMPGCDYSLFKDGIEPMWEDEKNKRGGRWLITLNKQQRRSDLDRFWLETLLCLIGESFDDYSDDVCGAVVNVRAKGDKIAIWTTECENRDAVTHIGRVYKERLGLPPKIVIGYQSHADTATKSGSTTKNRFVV
Sequence of Phosphomannomutase 2 (O15305 whole entry): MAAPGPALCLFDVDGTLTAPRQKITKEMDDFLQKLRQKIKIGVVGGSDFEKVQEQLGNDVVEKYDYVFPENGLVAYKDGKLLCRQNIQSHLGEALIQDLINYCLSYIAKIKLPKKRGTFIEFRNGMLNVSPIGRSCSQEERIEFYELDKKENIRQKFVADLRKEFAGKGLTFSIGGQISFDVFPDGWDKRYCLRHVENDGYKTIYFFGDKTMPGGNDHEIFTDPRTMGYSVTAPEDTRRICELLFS
Sequence of Sphingosine 1-phosphate receptor 1 (P21453 whole entry): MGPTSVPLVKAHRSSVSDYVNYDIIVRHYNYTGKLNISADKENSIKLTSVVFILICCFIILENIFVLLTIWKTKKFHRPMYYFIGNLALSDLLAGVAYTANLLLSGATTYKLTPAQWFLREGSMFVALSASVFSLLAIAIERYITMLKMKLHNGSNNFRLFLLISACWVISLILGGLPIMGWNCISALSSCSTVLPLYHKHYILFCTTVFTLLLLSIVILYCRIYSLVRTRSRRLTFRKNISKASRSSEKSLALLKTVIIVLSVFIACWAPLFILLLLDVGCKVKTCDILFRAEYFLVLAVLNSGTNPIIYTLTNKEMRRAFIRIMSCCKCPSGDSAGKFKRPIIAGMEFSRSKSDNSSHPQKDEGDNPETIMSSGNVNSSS

For `CCOC(=O)c1c(-n2c(C)cc(/C=C3\C(=O)NC(=O)N(C)C3=O)c2C)sc2c1CCCC2`, the EC50 [1] was > 49.8 µM (inactive) and the EC50 [2] was > 49.8 µM (not active).

`COc1cc(/N=c2\ssnc2Cl)c(OC)cc1Cl` was tested, and the IC50 [3] was 3.12 µM (active), the IC50 [4] was 6.24 µM (active) and the IC50 [5] was 15.2 µM (active). The IC50 (Phosphomannomutase 2) was 97.3 µM (active).

In the case of `COc1ccc(CC2(CO)CCN(Cc3nccn3-c3cccc(C)c3)CC2)cc1`, the EC50 [6] is reported as > 10 µM (inactive), the IC50 [7] is reported as > 32 µM (inactive) and the EC50 [8] is reported as > 32 µM (inactive). The EC50 (Mu-type opioid receptor [9]) was > 32 µM (inactive), the IC50 [10] was > 32 µM (inactive) and the EC50 [11] was > 32 µM (inactive). The IC50 (Mu-type opioid receptor [12]) was > 32 µM (inactive).

`Nc1nccnc1C(=O)Nc1nnc(SCc2ccc(Cl)cc2)s1` was tested, and the EC50 [13] was > 285 µM (inactive).
